Experiment [1] concerns Male Wistar rats. Kind of experiment: Emergence test of anxiety after oxytocin pre-treatment (Example 3). The experiment is classed as in vivo, rat. The protocol:
(§1) Male Wistar rats (n=48) were obtained from the Animal Resource Centre (ARC), Perth, Western Australia, Australia. The animals were of early adolescent age (i.e., 21 days-old) on arrival and were young adults (i.e., 33 days-old) when oxytocin therapy commenced. The animals were housed and maintained as described in the preceding examples, except that animals were moved to individual housing during chronic exposure to alcohol.
(§2) One-half of the rats (n=24) were administered 10 injections of 1 mg/kg oxytocin (1×I/P injection per day for a total of 10 days). The other half of the rats (n=24) received equivalent injections of placebo/vehicle lacking oxytocin.
(§3) At 7 days following final injection of oxytocin, all rats were tested in an emergence test of anxiety. This 5 min test measures the willingness of rats to leave a small dark hide box and emerge into a brightly lit open field. Rats normally avoid brightly lit and open spaces. Three days later, the animals were tested in social interaction tests which measure the willingness of rats to engage in social behavior during a 10 min session in a darkened arena where they meet an unknown rat that has received the same drug treatment.

Experiment [2] relates to Male Wistar rats. Kind of experiment: Social interaction test after oxytocin pre-treatment (Example 3). The experiment is classed as in vivo, rat. The protocol:
as §1, §2, §3

Experiment [3] has as its system rats having established patterns of pathologically-high alcohol consumption. As to the kind of experiment: Beer and water consumption in the 2.5 hr after a single oxytocin injection in alcohol-dependent animals (Example 4, FIG. 8). In kind it is in vivo, rat. The note with it: 2.5 hr following 1 mg/kg IP. Here is the method: FIG. 8 provides graphical representations showing total consumption (ml) of full strength beer (panel A) and water (panel B) in rats having established patterns of pathologically-high alcohol consumption over several months, in a 2.5 hr period following intraperitoneal (IP) injection with 1 mg/kg oxytocin (OXY, n=8) or saline vehicle (VEH, n=8). […] Alcohol consumption in animals treated with oxytocin was reduced in the short-term by about 25% to about 40% or about 50% or about 60%. In contrast, consumption of water was unchanged in animals receiving oxytocin or saline vehicle placebo.
Alcohol-dependent animals were provided a single injection i/p of oxytocin (1 mg/kg body weight) and their alcohol consumption levels in the 2.5 hr period following therapy were determined.

In experiment [4] the test system is alcohol-dependent adults and non-dependent problem drinkers. As to the kind of experiment: Human Study 2: intranasal oxytocin, alcohol self-administration. The note with it: versus placebo. In kind it is in vivo. The protocol:
In a second clinical study in humans, the effect(s) of intranasal oxytocin therapy on alcohol self-administration are determined in a population of alcohol-dependent adults and in a population of non-dependent problem drinkers.
At least forty male and female adults are recruited from the community to the Brain and Mind Research Institute (BMRI) to participate in a laboratory based investigation looking at the impact of oxytocin on alcohol craving. Participants have a current diagnosis of alcohol dependence according to the Diagnostic and Statistical Manual of Mental Disorders, Fourth Edition (DSM-IV) as determined by the Structured Clinical Interview for the DSM-IV (SCID-IV) or are non-dependent subjects scoring higher than 8 on AUDIT. Male and female participants are chronic hazardous drinkers consuming more than 20 (females) or 25 (males) standard drinks per week (i.e., females: more than 200 g alcohol per week; males more than 250 g alcohol per week), respectively, and have not been abstinent more than 3 days per week in the 30 days preceding commencement of the trial as determined by AUDIT.
All subjects are tested for baseline SCID-IV, AUDIT, PDQ, 90-day TLFB, DASS-21, PANAS, AUQ, FTND, urine toxicology, plasma oxytocin and cortisol, liver function testing, heart rate (HR), blood pressure (BP), and ECG, and females are pregnancy-tested and their menstrual cycles determined, as described herein above for Study 2. Neuropsychological evaluations are also performed e.g., according to CANTAB. Additionally, subjects are subjected to attention bias assessment task testing, wherein attention biases to alcohol-related cues are determined using e.g., stroop and dot-probe methodology. Subjects also participate in a reward learning computer task, to assess motivation for their alcohol consumption. Based on their test results, subjects are selected for recruitment in the study.
Recruited subjects are administered placebo or oxytocin intranasally (80 IU per day: 40 IU at 9:00 am and 40 IU at 9:00 pm) over a period of 7 days, following completion of baseline measurements. Subjects are instructed on self-administration procedures. Drug administration commences on the evening of the day of the clinical and medical interview and ceases on a morning one-week later, after 14 doses have been administered. Subjects are randomized to oxytocin-receiving or placebo-receiving groups, and the groups are stratified according to gender, age, and drinking behavior. Subjects are contacted by telephone daily to confirm medication compliance and determine adverse events.
Subjects returning to the BMRI on the afternoon of the final day of testing are evaluated. Bloods for plasma oxytocin and cortisol levels are collected before commencement. A urine toxicology test and alcohol breathalyzer test are also performed, to determine whether subjects have been alcohol-free and drug-free at the time of testing. Subjects are tested according to DASS-21, PANAS, 7-day TLFB, and AUQ, and neuropsychological evaluations e.g., according to CANTAB are performed. Changes in mood, drinking behavior and neuropsychology are evaluated for both groups by comparison with baseline evaluations. Changes in smoking behavior are evaluated by FTND testing and comparison with baseline evaluations. HR and BP records over the period and at cessation are also determined and compared to baseline levels before commencement of therapy. […]

The mark [5] stands for this setting: 10 x 1 mg/kg I/P, tested 7 days after final injection, versus vehicle.
Setting [6] is: 10 minute social interaction test, versus vehicle.

These results are taken from patent publication US9119805B2, “Therapy and prevention of problem drinking” (THE UNIVERSITY OF SYDNEY, priority 2009, dated 2015).

Entries after “also recorded” stand apart in the source; their conditions may differ.

In the case of `CC[C@H](C)[C@@H]1NC(=O)[C@H](Cc2ccc(O)cc2)NC(=O)[C@@H](N)CSSC[C@@H](C(=O)N2CCC[C@H]2C(=O)N[C@@H](CC(C)C)C(=O)NCC(N)=O)NC(=O)[C@H](CC(N)=O)NC(=O)[C@H](CCC(N)=O)NC1=O` [oxytocin], in the experiment on Male Wistar rats [1] (setting [5]), the “emergence from hide into brightly-lit open field” value is given as “greater likelihood of emergence into the open field; also recorded: emerged more rapidly” and the time hiding result is reported as “reduced time hiding; also recorded: significantly less time hiding”. In addition, the anxiety entry in the experiment on Male Wistar rats [1] (relative to control rats) was “reduced anxiety”. Also, in the experiment on Male Wistar rats [2] (setting [6]), the “number of social contacts” value is given as “significantly higher numbers of social contacts; also recorded: increased numbers of social contacts”; the “proximal time (time within one and half body lengths of another rat)” value is recorded as “significantly higher; also recorded: increased time spent in close proximity”. Besides, the social anxiety result with Male Wistar rats [2] (test animals after oxytocin therapy) is reported as “decreased social anxiety”. Moreover, the consumption of water entry in experiment [3] was “unchanged; also recorded: not affected”. Moreover, in experiment [3] (versus saline vehicle), the “beer (alcohol) consumption” value was “significantly reduced beer consumption”. The alcohol consumed entry in experiment [4] (ad libitum drinking sessions) is “consume less alcohol”. In addition, in experiment [4], the “bias to alcohol-related cues” value is “lower bias”, the “positive response to the alcohol primer” value is recorded as “lower levels of positive response”, the “reward motivation for alcohol consumption” value is on record as “reduced reward motivation” and the “subjective craving for alcohol” value was “lower”.
